Laboratory results taken from ChEMBL document CHEMBL1139065, “Pyrazole-based factor Xa inhibitors containing N-arylpiperidinyl P4 residues” (Bioorg Med Chem Lett, 2007).

Assays:
Coagulation factor X = Coagulation factor X (Homo sapiens, UniProt P00742); assay: Inhibition of human factor 10a
[1] = Apparent permeability across Caco-2 cells; details: human
[2] = Metabolic stability in human liver microsomes assessed as intrinsic clearance; assay type: ADME, Microsome
Oryctolagus cuniculus = organism: Oryctolagus cuniculus; assay: Antithrombotic activity against rabbit arterio-venous shunt thrombosis model; assay type: functional, organism-based
Plasma = assay: Anticoagulant potency in human plasma assessed as concentration required to double prothrombin time; assay type: functional
[3] = Half life in dog at 0.2 mg/kg, po; details: in vivo
in vivo = details: dog, po, 0.2 mg/kg
[4] = Clearance in dog at 0.5 mg/kg, iv; details: in vivo
[5] = Half life in human liver microsomes
Prothrombin = Prothrombin (Homo sapiens, UniProt P00734); assay: Inhibition of thrombin
Trypsin = Trypsin (Homo sapiens, UniProt P07477+P07478+P35030); assay: Inhibition of trypsin; assay type: protein assay

Coagulation factor X, sequence (P00742 41-179 limits assumed): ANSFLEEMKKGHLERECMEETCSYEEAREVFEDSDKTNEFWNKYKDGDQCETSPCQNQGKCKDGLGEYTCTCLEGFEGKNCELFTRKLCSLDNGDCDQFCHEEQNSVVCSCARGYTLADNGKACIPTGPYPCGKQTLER
Coagulation factor X, sequence (P00742 235-488 limits assumed): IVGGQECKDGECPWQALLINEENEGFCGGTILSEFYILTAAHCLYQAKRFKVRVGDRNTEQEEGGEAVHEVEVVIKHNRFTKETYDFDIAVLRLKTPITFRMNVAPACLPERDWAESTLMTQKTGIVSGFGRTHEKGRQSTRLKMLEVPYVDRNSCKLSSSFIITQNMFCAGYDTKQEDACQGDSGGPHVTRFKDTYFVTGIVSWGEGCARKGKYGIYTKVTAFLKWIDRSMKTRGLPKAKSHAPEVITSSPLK

Structure (SMILES)	Ki (Coagulation factor X)	PT (Plasma)	further results
CS(=O)(=O)c1ccccc1[C@H]1CC[C@H](NC(=O)c2cc(C(F)(F)F)nn2-c2cccc(CN)c2)CC1	5.7 nM		
CS(=O)(=O)c1ccccc1N1CCC(NC(=O)c2cc(C(F)(F)F)nn2-c2ccc3onc(N)c3c2)CC1=O (configuration not stated)	92 nM		
Nc1noc2ccc(-n3nc(C(F)(F)F)cc3C(=O)NC3CCN(c4ccccc4CN4CCCC4)CC3)cc12	0.61 nM	0.84 µM	Papp [1]: 1.3 ×10⁻⁶ cm/s; microsomal CLint [2]: 29 µL/min/mg; EC50 (Oryctolagus cuniculus): 740 nM; half-life [3]: 5 h; bioavailability (in vivo): 26%; clearance [4]: 48.3 mL/min/kg
COc1ccc(-n2nc(C(N)=O)c3c2C(=O)N(C2CCN(c4ccccc4CN(C)S(C)(=O)=O)CC2)CC3)cc1	81 nM		
CCN(C)Cc1ccccc1N1CCC(NC(=O)c2cc(C(F)(F)F)nn2-c2ccc3onc(N)c3c2)CC1	0.7 nM	1.1 µM	Papp [1]: 2.7 ×10⁻⁶ cm/s; microsomal CLint [2]: 29 µL/min/mg; half-life [3]: 2.5 h; bioavailability (in vivo): 23%; clearance [4]: 71.7 mL/min/kg
CS(=O)(=O)c1ccccc1N1CCC(NC(=O)c2cc(C(F)(F)F)nn2-c2ccccc2CN)CC1	2.4 nM		
COc1ccc(-n2nc(C(F)(F)F)cc2C(=O)NC2CCN(c3ccccc3CN(C)C)CC2)cc1	8.8 nM		
COc1ccc(-n2nc(C(N)=O)c3c2C(=O)N(C2CCN(c4ccccc4CN(C)C)CC2)CC3)cc1	0.41 nM	1 µM	
COc1ccc(-n2nc(C(N)=O)c3c2C(=O)N(C2CCN(c4ccccc4CN4CCCC4)CC2)CC3)cc1	0.26 nM	1.2 µM	
COc1ccc(-n2nc(C(N)=O)c3c2C(=O)N(C2CCN(c4ccccc4CN4CCC[C@@H]4O)CC2)CC3)cc1	0.87 nM	2.5 µM	
CCN(CC)Cc1ccccc1N1CCC(N2CCc3c(C(N)=O)nn(-c4ccc(OC)cc4)c3C2=O)CC1	0.26 nM	1.5 µM	
COc1ccc(-n2nc(C(N)=O)c3c2C(=O)N(C2CCN(c4ccccc4S(C)(=O)=O)CC2)CC3)cc1	0.35 nM	4.2 µM	Papp [1]: 1.5 ×10⁻⁶ cm/s; half-life [5]: 1.95 h; Ki (Prothrombin): 1200 nM; half-life [3]: 0.8 h; bioavailability (in vivo): 78%; clearance [4]: 3.83 mL/min/kg; Ki (Trypsin): > 20000 nM
COc1ccc(-n2nc(C(N)=O)c3c2C(=O)N(C2CCN(c4ccccc4CN(C)C(C)=O)CC2)CC3)cc1	23 nM		
CS(=O)(=O)c1ccccc1N1CCC(NC(=O)c2cc(C(F)(F)F)nn2-c2cccc(CN)c2)CC1	4.9 nM		
COc1ccc(-n2nc(C(F)(F)F)cc2C(=O)NC2CCN(c3ccccc3S(C)(=O)=O)CC2)cc1	14 nM		
COc1ccc(-n2nc(C(F)(F)F)cc2C(=O)NC2CCN(c3ccccc3CN3CCCC3)CC2)cc1	29 nM		
Nc1noc2ccc(-n3nc(C(F)(F)F)cc3C(=O)NC3CCN(c4ccccc4CN4CCC[C@H]4O)CC3)cc12	0.73 nM	0.83 µM	Papp [1]: 0.2 ×10⁻⁶ cm/s; microsomal CLint [2]: 40 µL/min/mg; clearance [4]: 36.7 mL/min/kg
CS(=O)(=O)c1ccccc1C1=CCC(NC(=O)c2cc(C(F)(F)F)nn2-c2cccc(CN)c2)CC1 (configuration not stated)	3 nM		
CS(=O)(=O)c1ccccc1[C@H]1CC[C@@H](NC(=O)c2cc(C(F)(F)F)nn2-c2cccc(CN)c2)CC1	2000 nM		
CNCc1ccccc1N1CCC(N2CCc3c(C(N)=O)nn(-c4ccc(OC)cc4)c3C2=O)CC1	1 nM	1.8 µM	
COc1ccc(-n2nc(C(N)=O)c3c2C(=O)N(C2CCN(c4ccccc4CN4CCOCC4)CC2)CC3)cc1	0.57 nM	3.5 µM	
CNCc1ccccc1N1CCC(NC(=O)c2cc(C(F)(F)F)nn2-c2ccc3onc(N)c3c2)CC1	0.67 nM	1.2 µM	Papp [1]: 0.1 ×10⁻⁶ cm/s; half-life [3]: 0.3 h; bioavailability (in vivo): 1.7%; clearance [4]: 107 mL/min/kg
COc1ccc(-n2nc(C(N)=O)c3c2C(=O)N(C2CCN(c4ccccc4S(N)(=O)=O)CC2)CC3)cc1	3.9 nM		
COc1ccc(-n2nc(C(F)(F)F)cc2C(=O)NC2CCN(c3ccccc3CN3CCOCC3)CC2)cc1	6.6 nM		
CS(=O)(=O)c1ccccc1N1CCC(NC(=O)c2cc(C(F)(F)F)nn2-c2ccc3onc(N)c3c2)CC1	1.7 nM	2.8 µM	Papp [1]: 1.7 ×10⁻⁶ cm/s; microsomal CLint [2]: 51 µL/min/mg; half-life [3]: 1.3 h; bioavailability (in vivo): 24%; clearance [4]: 18.3 mL/min/kg
